Measurements taken from patent publication US11771703B2, “Targeted epigenetic therapy against distal regulatory element of TGFβ2 expression” (The Johns Hopkins University, priority 2017, dated 2023).
Entries after “also recorded” stand apart in the source; their conditions may differ. Numbered stars: 1 amine (or outer) side, 2 acyl side, 3 side chain; on linkers, the order of the positions; unused ones are H or OH. Bridge positions count the residues as written; N and C are the ends. Square brackets hold non-standard residues; d marks the D form. Peptide text beside a SMILES is read from it. I, II: the chains in the order shown. Actinocin(9to1) = Cc1c2oc3c(C)ccc(C(=O)[*:1])c3nc-2c(C(=O)[*:2])c(N)c1=O; NMeV = CN[C@H](C(=O)O)C(C)C; Sar = CNCC(=O)O

Tests used:
[1] = system: TGFβ2 mRNA expression in SSc fibroblasts; assay: TGFβ2 mRNA expression in primary dermal control and SSc fibroblasts, RT-qPCR; format: cell-based, human; conditions: for TGFβ2 mRNA expression in SSc fibroblasts after drug removal: 72 hours treatment, then drug removal; for TGFβ2 mRNA expression in SSc fibroblasts under treatment: SSc fibroblasts vs controls, serum-deprived, SGC-CBP30 72 hours, actinomycin D 12 hours; for TGFβ2 mRNA expression upon stimulation with cytokine/ligand: exogenous stimulation of fibroblasts
Protocol: (§1) To test this hypothesis, it was first validated whether primary dermal SSc fibroblast lines established from dermal biopsies maintained stable gene expression differences at baseline. Six dermal fibroblasts lines from SSc patients and five dermal fibroblast lines from healthy controls were cultured in serum-deprived conditions (DMEM+1% FCS) for 48 hours, followed by mRNA isolation. RNAseq analysis indicated significant transcriptomic differences (FDR<0.05) with heightened expression of extracellular matrix genes (P<1E-9) in SSc fibroblasts (FIG. 1A). By RT-qPCR, elevated expression of pro-fibrotic genes, such as COL1A1 and SERPINH1 (FIG. 1B), were independently validated. TGFβ expression, the dominant pro-fibrotic cytokine, was also assessed. […] This indicated transcriptional upregulation of TGFβ2 in SSc fibroblasts.
Since heightened TGFβ2 signaling drives collagen expression in SSc cells, the possible mechanisms of heightened TGFβ2 ligand expression in SSc fibroblasts, was investigated. First, it was determined if SSc fibroblasts were actively transcribing TGFβ2 mRNA by treating SSc or control fibroblasts with the transcriptional inhibitor actinomycin D for 12 hours, followed by mRNA isolation and RT-qPCR.
Second, it was determined if autocrine TGFβ2 signaling drives the steady-state differences in TGFβ2 mRNA expression in SSc fibroblasts. Cells were treated with isotype control or αTGFβ2ab in the presence or absence of saturating levels of exogenous TGFβ2 ligand (10 ng/mL), followed by mRNA isolation and RT-qPCR.
Third, pharmacological acetyltransferase inhibitors were used to support the role of enhancers in TGFβ2 expression and to identify therapeutic strategies for SSc. Bromodomain inhibitor SGC-CBP30 specifically suppresses the acetyltransferase activity of P300. […] This indicated some form of epigenetic memory that re-activates the TGFβ2 enhancer in SSc fibroblasts.

TGFB2 enhancer = conditions: Chem-seq database GSE44098, GSE43743; cited from earlier work
[2] = system: TGFB2 enhancer (Enhancer 4514); assay: ChIP-qPCR occupancy (P300, BRD4, H3K27ac) at the TGFB2 enhancer; format: cell-based, human
Excerpt: (§2) The negative enantiomer of JQ1 was used as a negative control. […] In FIGS. 4G and 4H, BRD4 inhibition with JQ1 normalizes TGFβ2 protein and collagen mRNA expression in SSc fibroblasts. In FIGS. 4I, 4J and 4K, JQ1 treatment normalizes chromatin accessibility, H3K27ac and BRD4 occupancy at the TGFB2 enhancer in SSc fibroblasts. […] FIG. 4M: Heatmap of unsupervised hierarchical clustering of differentially expressed genes between vehicle or JQ1-treated control or SSc fibroblasts by RNA-seq (N=2). Rows represent differentially expressed genes between vehicle-treated control and SSc fibroblasts (FDR<0.05). Differences in expression of these genes are mitigated in SSc fibroblasts upon JQ1 treatment. […] Blue and red bars represent control and SSc fibroblasts, respectively. Ncontrol=5 and NSSc=6. Lower and upper margins of each bar indicate 25th and 75th percentiles, respectively; the internal line indicates the mean and whiskers indicate the range. Black points represent individual samples. All mRNA levels were normalized to GAPDH mRNA levels, respectively. All experiments other than RNA-seq and ATAC-qPCR were repeated at least twice with similar results.
Detecting activation status of TGFβ2 enhancer: To determine the activation status of the enhancer for TGFβ2 expression, chromatin immunoprecipitation was performed, followed by quantitative PCR (CHIP-qPCR), using primers that were uniquely designed based on ATAC-seq data for primary fibroblasts and published ENCODE data. The current method of detecting the activation status of TGFβ2 enhancer was implemented on primary human fibroblast cell lines established from dermal biopsies of normal controls or Scleroderma patients. However, the current method is applicable to adherent or non-adherent cells from tissue or blood of subjects (e.g., human patients).
To determine if Enhancer 4514 was biologically functional, a three-pronged approach was taken. First, active and functional enhancers are strongly associated with H3K27ac histone modifications with heightened occupancy of P300 (histone acetyltransferase) (Cato E et al. (2013) Cell Molecular Cell Reviews. 49:825-837). Thus, chromatin immunoprecipitation was used followed by qPCR (ChIP-qPCR) to determine the level of H3K27ac and P300 at Enhancer 4514 in SSc and control fibroblasts under baseline serum-deprived conditions. […] Furthermore, moderately higher levels of phosphorylated SMAD2 occupancy was found at enhancer 4514 in SSc.

SSc fibroblasts = assay: RNA-seq transcriptome of vehicle or JQ1-treated control or SSc fibroblasts; format: cell-based, human
Excerpt: as §2, with “All experiments other than RNA-seq and ATAC-qPCR were repeated at least twice with similar results.” left out
To test this hypothesis, it was first validated whether primary dermal SSc fibroblast lines established from dermal biopsies maintained stable gene expression differences at baseline. […] TGFβ expression, the dominant pro-fibrotic cytokine, was also assessed. […]

TGFβ2 protein = TGFβ2 protein expression in SSc fibroblasts (western blot); format: cell-based, human
Protocol: FIG. 1A is a heatmap. Primary control and SSc fibroblasts were cultured ex vivo under serum deprived conditions (DMEM+1% FCS). Unsupervised hierarchical clustering was performed on genes with significant mRNA expression differences (FDR<0.05) assessed by RNA-seq on primary control and SSc fibroblasts. Top ranked GO term result for each gene cluster is indicated on the left of the heatmap. FIG. 1B are plots showing mRNA transcript levels measured by RT-qPCR. FIG. 1C: Transcript differences were correlated with protein expression by western blot under same culture conditions. FIG. 1D: Effects of TGFβ2 ligand stimulation on collagen expression was assessed in SSc fibroblasts. FIG. 1E: Effects of autocrine TGFβ2 signaling on mRNA expression of collagen was assessed through treatment of control and SSc fibroblasts with anti-TGFβ2 neutralizing antibody, followed by RT-qPCR. FIG. 1F: Effects of autocrine TGFβ2 stimulation on mRNA expression of TGFβ2 was assessed through treatment of control and SSc fibroblasts with combinations of anti-TGFBβ2 neutralizing antibody and exogenous TGFβ2 ligand ([…]). […]

[3] = system: collagen expression in SSc fibroblasts; assay: Collagen / fibrotic synthetic repertoire (FSR) expression in SSc fibroblasts, RT-qPCR; format: cell-based, human
Protocol: as §1
This provided evidence that autocrine TGFβ2 signaling drives high collagen expression in SSc. To test this, the activity of ALK5, a TGFβ receptor kinase required by all TGFβ isoforms, was inhibited. ALK5 inhibition normalized collagen expression in SSc fibroblasts (FIG. 1E, P<0.05).

[4] = system: TGFB2 enhancer (Enhancer 4514); assay: Chromatin accessibility at the TGFB2 enhancer (ATAC); format: cell-based, human; conditions: SSc fibroblasts under treatment
Excerpt: as §2
To test this hypothesis, an RNA-seq and Assay for Transposase-Accessible Chromatin Sequencing (ATAC-seq) were performed on three primary control fibroblast lines and three primary SSc fibroblast lines^7. […]

TGFβ3 mRNA expression = TGFβ3 mRNA expression in fibroblasts, RT-qPCR; format: cell-based, human; conditions: fibroblasts under treatment
Scleroderma cells = assay: Cell toxicity of CBP/P300 inhibitor treatment
TGFβ1 mRNA expression = TGFβ1 mRNA expression in fibroblasts, RT-qPCR; format: cell-based, human; conditions: fibroblasts under treatment
[5] = SSc fibroblasts under treatment
[6] = SSc fibroblasts, 72 hours treatment then removal

For `CC(C)(C)c1ccc(S(=O)(=O)/C=C/C#N)cc1` [BAY 11-7085], the “TGFβ2 mRNA expression in SSc fibroblasts after drug removal” value [1] was “sustained normalization”, the “TGFβ2 mRNA expression in SSc fibroblasts after drug removal” value ([1]; listed as BAY 11-70585) was “sustained repression” and the “TGFβ2 mRNA expression in SSc fibroblasts under treatment” value (“TGFβ2 mRNA expression … under treatment” for short) [1] was “robustly suppressed”. For the same molecule, the “TNFα-induced TGFB2 mRNA expression under co-treatment” value ([1]; co-treatment with TNFα) was “prevents TGFB2 induction”.

In the case of `Cc1sc2c(c1C)C(c1ccc(Cl)cc1)=N[C@@H](CC(=O)OC(C)(C)C)c1nnc(C)n1-2` [JQ1], the “TGFβ2 mRNA expression in SSc fibroblasts after drug removal” value [1] is reported as “sustained repression; also recorded: sustained suppression; also recorded: maintained even after drug removal”, the “TGFβ2 mRNA expression … under treatment” value [1] is reported as “rapidly normalized; also recorded: decreased” and the “TGFβ2 mRNA induction by exogenous TGFβ2 ligand under co-treatment” value ([1]; co-stimulation with TGFβ2 ligand (10 ng/mL)) is reported as “failed to induce TGFβ2 mRNA expression”. For the same molecule, the “TGFβ2 mRNA expression in SSc fibroblasts after a single 48 hr regiment” value ([1]; single 48 hr regiment) was “permanently normalizes”, the “binding at the TGFB2 enhancer (Chem-seq)” value (TGFB2 enhancer) was “specifically bound to the TGFB2 enhancer; also recorded: specific binding” and the “BRD4 occupancy at the TGFB2 enhancer” value [2, 5] was “complete normalization; also recorded: normalizes”. The “H3K27ac at the TGFB2 enhancer” value [2, 5] was “complete normalization; also recorded: normalizes”, the “BRD4 occupancy at the TGFB2 enhancer after drug removal” value [2, 6] was “continued normalization; also recorded: sustained normalization” and the “H3K27ac at the TGFB2 enhancer after drug removal” value [2, 6] was “continued normalization; also recorded: sustained normalization”. For the same molecule, the “P300 occupancy at the TGFB2 enhancer after drug removal” value [2, 6] was “continued normalization; also recorded: sustained normalization”, the “transcriptomic differences between control and SSc fibroblasts (RNA-seq)” value (SSc fibroblasts; N=2) was “significantly mitigated transcriptomic differences” and the “clustering in principal component analysis of RNA-seq” value (SSc fibroblasts; PC1, 67% of total variance) was “cluster together with control samples in PC1; also recorded: cluster with control fibroblasts”. The “TGFβ2 protein levels in SSc fibroblasts” value (TGFβ2 protein) was “rapidly normalized; also recorded: normalizes”, the “fibrotic synthetic repertoire (FSR) in SSc cells” value ([3]; e.g. COL1A1, SERPINH1) was “normalization” and the “collagen expression in SSc fibroblasts” value ([3]; mRNA, RT-qPCR) was “rapidly normalized; also recorded: normalizes”. The “chromatin accessibility at the TGFB2 enhancer” value [4] was “complete normalization; also recorded: normalizes”.

With `COc1ccc(CCc2nc3cc(-c4c(C)noc4C)ccc3n2C[C@H](C)N2CCOCC2)cc1Cl` [SGC-CBP30] the “TGFβ2 mRNA expression in SSc fibroblasts after drug removal” value [1] was “rebounded to steady-state levels”, the “TGFβ2 mRNA expression … under treatment” value [1] was “normalized TGFβ2 expression in SSc fibroblasts to levels comparable to that of controls; also recorded: suppressed; also recorded: decrease TGFβ2 expression in Scleroderma cells to levels comparable to that of control” and the “TGFβ2 mRNA expression … under treatment” value ([1]; listed as SGC-CBP300) was “specifically decrease”. The “TGFβ2 mRNA level in SSc cells compared to control after drug removal” value ([1]; after 72 hours of treatment and drug removal) was 3 fold, the “P300 occupancy of the TGFB2 enhancer under treatment” value ([2]; SSc fibroblasts, 72 hours) was “suppressed” and the “P300 occupancy at the TGFB2 enhancer after drug removal” value [2, 6] was “re-establish high P300 occupancy; also recorded: rebounded to steady-state levels”. For the same molecule, the “TGFβ3 mRNA expression” value (TGFβ3 mRNA expression) was “not TGFβ1 or TGFβ3”, the cell toxicity (Scleroderma cells) was “minimal cell toxicity” and the “TGFβ1 mRNA expression” value (TGFβ1 mRNA expression) was “not TGFβ1 or TGFβ3”.

With `Cc1c2oc3c(C)ccc(C(=O)N[C@@H]4C(=O)N[C@H](C(C)C)C(=O)N5CCC[C@H]5C(=O)N(C)CC(=O)N(C)[C@@H](C(C)C)C(=O)O[C@@H]4C)c3nc-2c(C(=O)N[C@@H]2C(=O)N[C@H](C(C)C)C(=O)N3CCC[C@H]3C(=O)N(C)CC(=O)N(C)[C@@H](C(C)C)C(=O)O[C@@H]2C)c(N)c1=O` [actinomycin D] (I: T[dV]P[Sar][NMeV] / II: T[dV]P[Sar][NMeV]; ester I:1-I:C, II:1-II:C; linker I:N-II:N via Actinocin(9to1)) the “TGFβ2 mRNA expression … under treatment” value [1] was “completely normalized”, the “TGFβ3 mRNA expression” value (TGFβ3 mRNA expression) was “did not significantly alter” and the “TGFβ1 mRNA expression” value (TGFβ1 mRNA expression) was “did not significantly alter”.

In the case of TNFα, the “TGFβ2 mRNA expression upon stimulation with cytokine/ligand” value [1] is reported as “increased TGFβ2 expression; also recorded: induces TGFB2 mRNA expression”.

B1: TGFβ2 ligand: exogenous TGFβ2 ligand (10 ng/mL) (protein, UniProt P61812 303-414, looked up)
Transforming growth factor …: ALDAAYCFRNVQDNCCLRPLYIDFKRDLGWKWIHEPKGYNANFCAGACPYLWSSDTQHSRVLSLYNTINPEASASPCCVSQDLEPLTILYYIGKTPKIEQLSNMIVKSCKCS
With B1 the “TGFβ2 mRNA expression upon stimulation with cytokine/ligand” value [1] was “pronounced further increase in TGFβ2 mRNA”.
